Results on 4 compounds are retold here after patent publication US9387212B2, “Methods for treating Parkinson's disease” (UCB Pharma S.A., priority 2012, dated 2016).

In one assay the test system is PD patients. The following applies: Mizuno et al. 2010; Nutt et al., 2008; cited from earlier work.
For assay [1], the system named is unilateral 6-OHDA-lesioned rats. As to the kind of experiment: Video-based behavioural profile analysis (Ethovision) in drug-naive hemi-parkinsonian rats. It counts as in vivo, rat. Particulars: % of the veh-treated rats; for Distance (quantity of movement): Radiprodil 3 mg/kg po, Tozadenant 30 mg/kg po, LD25 ip, LD/BZ 16/4 mg/kg ip; for Adequate body position / Adequate trajectory (gyration radius) / Contra turns (ability to shift direction) / Ipis turns (ability to shift direction): same doses. Here is the method: (§1) The specific behavioural profile of unilateral 6-OHDA-lesioned rats was recorded via 8 cameras connected to a video acquisition system. Rats under treatment were placed freely in a small environment (rotometers, 25×22 cm) or in large open-field (50×40 cm) and the behaviour was video-recorded for 55 minutes (total of 3300 sec). The placement in the small (rotometers) or large (open-field) environment may depend on the test. The rats were filmed from below as described in the section which concerns the rotational activity.
(§2) After the in-live data recordings, the videos are subsequently analyzed by the Ethovision program from (Noldus, version 9.0). The animal and its movements and displacements were defined according to three points (nose, center and tail). The movements, position of the body and, the space occupation, were set-up according to the filter analysis defined with specific criteria and thresholds in the program. Various behavioural parameters were analyzed and only the relevant, i.e. the non-correlated ones, were kept for the final behavioural description.
(§3) The analysis of the other types of behaviours was done with specific parameters selected in the video analysis program (Ethovision 9.0) in order to describe as best as possible the behaviour observed visually and being able to quantify it. The parameters “Distance”, “Counter Clockwise rotations”, “Clockwise rotations”, “Streched” were extracted from the analysis. Additional parameter, the “gyration radius” is calculated from the raw data obtained by the system. • Distance (=“distance”): the total distance moved by the animal (cm) • Counter clockwise (=“ipsilateral turns”): count of the number of 360° turns of ipsilateral rotations in the same sense than that of the lesion. • Clockwise (=“contralateral turns”): count of the number of 360° turns of contralateral rotations in the opposite sense to that of the lesion. • Stretched: (=“adequate body position”): time spent in a position wherein the rat stands on its four paws without any bent position of the trunk. In the program this is the parameter “body elongation” that is used to discriminate the intensity and frequency of the adequate body position. The threshold is fixed at 70%. • Gyration Radius (=“adequate trajectory”): for a specific time interval, average distance between the animal position and its average position within this specific time interval. This parameter reflect the ability of the rats to use the entire space of the arena and is measured in centimeters. Statistical Analysis
Specific behavioural analysis: The five behaviours kept for the thorough behavioural analysis (i.e. distance, contra turns, ipsi turns, adequate body position and adequate trajectory) were analyzed with parametric statistic however if variance homogeneity was not respected for the data (Bartlett's test for equal variances) these latter were analyzed with non-parametric statistics (Kruskal-Wallis). In both case, one-way ANOVA was performed to discriminate the effect of the various treatments on each independent behaviours. Significant differences between means were determined by Tukey post hoc test or Dunn's Multiple Comparison test with p<0.05.
The effects of the oral co-administration of Radiprodil (3 mg/kg, po) with Tozadenant (30 mg/kg, po) on the rat behaviour are compared to the testing of: • 1) these compounds separately • 2) a partially active dose of L-Dopa (25 mg/kg, ip) • 3) a fully active dose of L-Dopa/benserazide (16/4 mg/kg, ip).
The behavioural profile was analyzed in detail with an automated behavioural analysis system based on video recordings (see methods section for the description). In addition, classical measurements (rotometers and actometers) of the behaviour are also used to assess quantity of movements. […]

Assay [2] concerns hemi-parkinsonian L-Dopa-primed rats. As to the kind of experiment: Behavioural profile analysis in L-Dopa-primed, fully dyskinetic hemi-parkinsonian rats. In kind it is in vivo, rat. Particulars: Radiprodil 3 mg/kg, Tozadenant 30 mg/kg. Here is the method: as §1, §2
The analysis of the Abnormal Involuntary movement (“AIMs”) was performed with a specific parameter defined in Ethovision 9.0. The parameter “body elongation” was used to discriminate both the intensity and the frequency of dyskinetic (i.e. dystonic) position of the rat.
as §3
Consecutively to that chronic L-Dopa/benzerazide treatment, they show a very high level of contralateral rotations and AIMs at the end of this chronic treatment when tested in the open-field. […] This absence of cross-sensitization on the level of contralateral rotations and AIMs result was entirely unexpected.

The subject of assay [3] is unilateral 6-OHDA-lesioned rat model of Parkinson's disease. As to the kind of experiment: General activity (distance travelled, rearing counts) in actometers. It counts as in vivo. The following applies: Radiprodil 3 mg/kg po, Tozadenant 30 mg/kg po; three-way mixed ANOVA, Tukey p<0.05. As for the experimental part: Subjects: Males Sprague-Dawley rats (Janvier, France), weighing 250-275 g at the time of surgery and 400-450 g at the time of drug testing are used.
On the day of surgery, one week after arrival, rats received unilateral 6-OHDA injection into the right medial forebrain bundle. Each rat was administered with Imipramine HCl (Sigma) 15 minutes before surgery to protect norepinephrinergic (NE) neurons. Rats were anesthetized with Ketamine (Ceva, 75 mg/kg) and Xylazine (Bayer, 10 mg/kg) and placed in stereotaxic frame (David Kopf Instrument). […] Each rat was monitored and handled regularly for 3 weeks to ensure full recovery and acclimation to the experimenters and environment. […]
General activity was recorded within large open-field measuring horizontal and vertical movements and connected to PCs. […] Locomotion was detected and measured by 16 infrared light-beam sensors located on each side of the enclosure at heights of 3 cm. […] Activity counts were recorded by a personal computer. […]
The level of general activity (distance and rearing) measurement in actometers was assessed by three-way mixed ANOVA with the A2A antagonist (2 levels) and the NR2B antagonist (2 levels) as between-group factors and the time as within-subjects factor (6 or 24 levels). […]

Consider `CCn1c(=O)c2c(nc(/C=C/c3ccc(OC)c(OC)c3)n2C)n(CC)c1=O` [KW-6002], for which the “efficacy in clinical trials in PD patients” value in the assay with PD patients is recorded as “did not show the expected efficacy”.

As to `N[C@@H](Cc1ccc(O)c(O)c1)C(=O)O` [LD25, L-dihydroxyphenylalanine], in assay [1] (0-20′), the “Distance (quantity of movement)” value is “++ (300-500%)”, the Adequate body position result was “+ (200-300%)”, the “Adequate trajectory (gyration radius)” value is recorded as “+++ (>500%)” and the “Contra turns (ability to shift direction)” value was “+++ (>500%)”. Also, in assay [1] (0-20′), the “Ipis turns (ability to shift direction)” value was “++ (300-500%)”. Also, in assay [1] (30-50′), the “Distance (quantity of movement)” value was “+++ (>500%)”, the Adequate body position result is recorded as “++ (300-500%)”, the “Adequate trajectory (gyration radius)” value is “+++ (>500%)” and the “Contra turns (ability to shift direction)” value was “+++ (>500%)”. For the same compound, in assay [1] (30-50′), the “Ipis turns (ability to shift direction)” value is recorded as “++ (300-500%)”.

As to `COc1ccc(N2CCOCC2)c2sc(NC(=O)N3CCC(C)(O)CC3)nc12` [Tozadenant, 4-hydroxy-4-methyl-piperidine-1-carboxylic acid (4-methoxy-7-morpholin-4-yl-benzothiazol-2-yl)-amide], in assay [2] (arrow gives direction vs LD/BZ), the “Adequate body position, in comparison to the same rats under L-Dopa/benserazide” value turned out to be 4151% ↑; the “Contra turns, in comparison to the same rats under L-Dopa/benserazide” value amounted to 11% ↓; the “No AIMs, in comparison to the same rats under L-Dopa/benserazide” value is 948% ↑; the “Severe AIMs, in comparison to the same rats under L-Dopa/benserazide” value is on record as 12% ↓. In assay [2] (arrow in cell: increase, decrease or no change vs LD/BZ), the “Distance, in comparison to the same rats under L-Dopa/benserazide” value was 56% ↓. Moreover, in assay [1] (0-20′), the “Distance (quantity of movement)” value is recorded as “+ (200-300%)”, the Adequate body position result is given as “+ (200-300%)”, the “Adequate trajectory (gyration radius)” value was “+++ (>500%)” and the “Contra turns (ability to shift direction)” value is on record as “+ (200-300%)”. Besides, the “Ipis turns (ability to shift direction)” value in assay [1] (0-20′) is given as “+ (200-300%)”. Also, in assay [1] (30-50′), the “Distance (quantity of movement)” value is on record as “++ (300-500%)”, the Adequate body position entry is reported as “++ (300-500%)”, the “Adequate trajectory (gyration radius)” value is listed as “+++ (>500%)” and the “Contra turns (ability to shift direction)” value is on record as “++ (300-500%)”. In assay [1] (30-50′), the “Ipis turns (ability to shift direction)” value is “++ (300-500%)”. For the same compound, the “distance (FIG. 1, right graph)” value in assay [3] is “Significant effect”.

For `C[C@@H]([C@@H](O)c1ccc(O)cc1)N1CCC(O)(c2ccccc2)CC1` [Traxoprodil], the “efficacy in clinical trials in PD patients” value with PD patients is given as “did not show the expected efficacy”.
